Results from patent US20210293825A1, “METHODS FOR PRECISION THERAPEUTIC TARGETING OF HUMAN CANCER CELL MOTILITY AND KITS THEREOF” (UNITED STATES GOVERNMENT AS REPRESENTED BY THE DEPARTMENT …, priority 2018, published 2021).

How the values were obtained:
[1] = system: human prostate, breast, colon and lung cancer cells; experiment: Single cell migration (motility) assay; assay type: cell-based; settings: 10 μM, 3 days
From the text: FIG. 1a is a schematic flow of probe synthesis and development strategy. […] Values are mean±SEM of a single experiment in replicates of N=4, with similar findings in multiple separate experiments (also N=4). […] Values are mean±SEM of a single experiment in replicates of N=24, with similar findings in a separate experiment (also N=24). *Denotes Student's t test P value <0.05, compared to controls. […] Values are mean±SEM from N>2 separate experiments, each in replicates of N=3. […] Values are the mean±SD number of total, CFU-GM, CFU-GEMM or BFU-E colonies at 14 days after treatment with KBU2046, from a single experiment in replicates of N=2. […] Values are the mean±SD of a single experiment, with similar results seen in a separate experiment, both in replicates of N=2.
Cell Migration Assays. Single cell motility assays were conducted by adding 10^4 cells to 35 mm tissue culture dishes (BD Falcon) coated with collagen I (BD Biosciences), incubating at 37° C. in 5% CO2, performing time-lapse imaging using a Biostation (Nikon Instruments), tracking the path of N≥35 cells using ImageJ software and the Manual Tracker plug-in, and using Chemotaxis and Migration Tool plug-in for data analysis.

HSP90β = biological target: T1, HSP90β (Homo sapiens, UniProt P08238); experiment: Biophysical binding assays and DARTS, isolated HSP90β; settings: ITC, thermal shift, biolayer interferometry, dynamic light scattering, DARTS
T1 construct: made in house; host or cells: Rosetta BL-21 E. coli
T1 sequence (P08238 whole entry): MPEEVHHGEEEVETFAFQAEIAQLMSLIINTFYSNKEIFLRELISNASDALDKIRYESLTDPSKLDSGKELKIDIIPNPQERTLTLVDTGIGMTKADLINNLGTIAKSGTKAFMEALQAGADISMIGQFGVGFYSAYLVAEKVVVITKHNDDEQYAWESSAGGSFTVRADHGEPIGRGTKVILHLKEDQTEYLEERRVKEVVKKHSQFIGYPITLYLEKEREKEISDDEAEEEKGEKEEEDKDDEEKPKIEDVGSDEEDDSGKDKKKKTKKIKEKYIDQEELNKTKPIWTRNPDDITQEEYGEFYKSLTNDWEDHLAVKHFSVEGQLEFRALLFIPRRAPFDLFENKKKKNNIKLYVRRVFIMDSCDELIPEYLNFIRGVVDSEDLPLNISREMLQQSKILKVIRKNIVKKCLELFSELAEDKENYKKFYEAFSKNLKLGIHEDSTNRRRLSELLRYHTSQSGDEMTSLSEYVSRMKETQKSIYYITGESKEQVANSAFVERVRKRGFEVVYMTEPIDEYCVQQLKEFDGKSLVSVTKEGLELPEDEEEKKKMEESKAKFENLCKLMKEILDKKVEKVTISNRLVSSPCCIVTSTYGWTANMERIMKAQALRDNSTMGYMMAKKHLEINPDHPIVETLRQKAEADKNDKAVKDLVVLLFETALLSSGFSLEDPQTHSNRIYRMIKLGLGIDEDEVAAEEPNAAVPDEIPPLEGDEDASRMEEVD
Description: Studies used purified recombinant HSP90β or CDC37. […] For DARTS assay, HSP90β or CDC37 were individually pre-incubated with KBU2046, thermolysin added, and reaction products were separated by SDS PAGE and visualized by silver stain (depicted above). NTco—no thermolysin control. However, when the DARTS assay was conducted with both HSP90β and CDC37 present, KBU2046 protected both proteins from degradation in a concentration-dependent manner (see, FIG. 5a).
DARTS provides a sensitive measure of ligand-induced changes in protein structure and dynamics by measuring the ability of a ligand to protect its target from protease digestion (Lomenick, B. et al., Proc Natl Acad Sci USA 106, 21984-9 (2009)). […] The intensity of the CDC37 band increased, that of the HSP90β degradation product decreased, and both effects were statistically significant, concentration-dependent and were evident at 10 nM. […] Further, these findings also indicate that KBU2046 is not acting as a classical HSP90 inhibitor.
Biophysical and Biochemical Binding Assays. […]

20 phosphatases = experiment: PhosphataseProfiler assay platform (Millipore); assay type: biochemical; settings: competition with substrate protein
From the text: Kinase assay system #3. KinaseProfiler™ and PhosphataseProfiler™ assay platforms (Millipore). This platform is radiometric-based (considered gold standard). It measures competition with respect to ATP for kinases and substrate protein for phosphatases. Most proteins were expressed via an insect-based system, and it evaluates a panel of 284 kinases and 20 phosphatases. […] Important negative findings include: MKK4, MKK6, p38 MAPK, MAPKAPK2, RAF1, ERK, MEK1, JNK1, 2 and 3, and numerous other MAPK cascade-associated kinases.

[2] = system: protein phosphorylation in PC3-M and PC3 cells; experiment: KinomeView phospho-motif antibody screen; assay type: cell-based, human; settings: 10 μM, 3 days, ±TGFβ
From the text: Seeking to identify KBU2046's biological target(s), alternative methods were pursued. The KinomeView® panel of antibodies (Cell Signaling Technology, Inc.) detect established protein phosphorylation motifs, and were used to probe for KBU2046-induced changes in protein phosphorylation (FIG. 4a and FIG. 17). Phosphoprotein changes that met the following criteria were prioritized: were induced in cells in vitro as well as in tumors of treated mice (from FIG. 2a), that counteracted transforming growth factor β (TGFβ)-induced effects, and that were reproducible. TGFβ is ubiquitous in vivo, is known to increase PCa cell invasion (Huang, X. et al., Cancer Research 65, 3470-8 (2005)), and KBU2046's anti-invasion efficacy remains in spite of TGFβ-stimulated increases in cell invasion (FIG. 18). Genistein was evaluated under identical treatment conditions for comparison. […] In tumors of treated animals KBU2046 had this same effect on this 83 kDa protein band (green arrow in FIG. 17a). The high molecular selectivity of KBU2046 was further supported by its failure to inhibit over 400 different protein kinases and 20 phosphatases examined, in three different in vitro assay systems (see, Example 1).
Phospho-proteomic Analysis. The Kinoview™ and PhosphoScan™ assays were performed by Cell Signaling Technology Inc. […]

[3] = system: RAF1 in PC3 and PC3-M cells; experiment: RAF1-Ser338 phosphorylation in prostate cancer cells (Western blot); assay type: cell-based, human; settings: 10 μM
Description: PC3 and PC3-M human prostate cancer cells were treated with 10 μM KBU2046 for the indicated lengths of time; control cells (C) were treated with vehicle. Levels of RAF1-Ser^338 phosphorylation (pRaf1), total RAF1, and GAPDH proteins were then measured by Western blot.

Compound: O=C1c2ccccc2OCC1c1ccc(F)cc1 (racemic) [KBU2046, (±)-3(4-fluorophenyl)chroman-4-one]
- inhibition of cell migration [1]: inhibited the migration
- binding to HSP90β (HSP90β): no evidence of KBU2046 binding
- inhibition of phosphatase activity (20 phosphatases): No evidence supports inhibition of phosphatase activity
- changes in protein phosphorylation [2]: induced a single change that met the pre-specified criteria
- levels of phospho-RAF1 [3]: decreased levels of phospho-RAF1 in a time-dependent manner
